Key:
Format in all cases: in vivo
[1] = test system: female mosquitoes (Aedes aegypti); experiment: Mosquitoes flying test (Plexiglas module, mosquitoes flying within the apparatus); details: for Flying Relative To Control: control = 1, higher = more inhibitor activity; for spatial inhibitor activity for mosquitoes (flying tests, FIGS. 2 and 4), in words: flying relative to control
Description: The test was conducted at 0900-2100 hours in a walk-in incubator (26° C., 63-80% RH) illuminated by fluorescent lights. Mosquitoes were tested in a two-piece Plexiglas module designed to assess their response to feeding deterrents. The bottom piece of the module was 40×7×4-cm hollow platform supporting six circular wells (diameter=3.8 cm, depth=6 mm). Water (40° C.) flowed through the central cavity of the platform at a rate of 215 ml/min. The top piece of the module consisted of six 4.5×4.0×5.0 cm chambers, the floors of which were fitted with a sliding door positioned over a circular opening 3.5 cm in diameter. Mosquitoes were introduced through an aperture 1 cm in diameter on the front wall of the chambers. For each test, five female mosquitoes (Aedes aegypti) were aspirated into each of five chambers of the top module piece and the apertures were plugged with corks wrapped in plastic film. The wells on the bottom piece of the module were filled with 7 ml of 10% sucrose solution containing ATP (2.9 mg/ml). To each well, 75 μl of green dye (McCormick Food, Hunt Valley, Md.) were added so that those mosquitoes imbibing the sugar solution could be identified when crushed at the end of the tests. Each membrane received 50 ul of acetone or experimental compound solution, applied to 9.6 cm^2 circular area on 0.1 mm-thick membranes made of nylon mesh in a silicone matrix. The membranes were then placed over each well in contact with the sugar solution.
The circular openings on the floor of each chamber of the top piece of the module were aligned with each membrane-covered well of the bottom piece. The sliding floors of the chambers were then opened allowing mosquitoes access to the membranes. The number of mosquitoes landing on the membranes, and those flying within the apparatus, were recorded each minute for five minutes. After five minutes, any mosquitoes remaining on the membranes were removed with a metal wire, and the door of the floor of each chamber was closed. The top piece of the module was then placed into a freezer for 20 minutes. In the test designed to assess feeding, mosquitoes were removed from the frozen module, crushed on white paper towels, and examined for the presence of green dye to indicate that feeding had occurred. The proportions of mosquitoes feeding per trial were analyzed using a standard generalized linear model with a logit link. Landing and flying scores are repeated measures; five reading were obtained for groups of five mosquitoes. Thus, to maintain independence among the data, the five readings were summed, and then the sums divided by 25 (the maximum score in each category) to create proportions of mosquitoes landing and flying. The proportions were then transferred using the standard variance stabilizing transformation for proportions (sin^−1 √y, where y is the proportion), and analyzed using ANOVA (Analysis of Variables)
In Table 2, weight percent (wt %) refers to the weight of the deterring/repelling/inhibiting compound, or combination of compounds, in the composition used in the tests. […] The weight ratio of the compounds in the combination of compounds is given in parentheses in the “Compound(s)” column of Table 2.

mosquitoes = experiment: Spatial inhibition of mosquitoes, outdoor Mosquito Magnet Liberty Plus trap catch; details: control trap = 100% catch, lower = more inhibition
Description: Two grams of test compound was absorbed onto pieces of absorbent material. These pieces of absorbent material (fragrance release material from Rhopore Inc.) containing absorbed test compound were then placed in a stream of CO2 and r-octenol being released from an American Biophysics Mosquito Magnet Liberty Plus mosquito trap designed to attract mosquitoes. The test were rotated over a period of 2-5 days in such a manner that both control (trap without test compound) and test compound were tested an equal number of times in each trap employed. The number of mosquitoes caught in the traps with test compounds was compared to the number of mosquitoes caught in the trap with no test compound material present. […] Thus, a lowered percentage is indicative of the increasing ability of the test compounds to inhibit the ability of the mosquitoes sense the target. […] In Table 3, weight percent (wt %) refers to the weight of the deterring/repelling/inhibiting compound, or combination of compounds, in the composition used in the tests. In the “Percent Caught Relative to Control” column in Table 3, a lower percentage is indicative of the increasing ability of the test compounds to inhibit the ability of the mosquitoes sense the target. The weight ratio of the compounds in the combination of compounds is given in parentheses in the “Compound(s)” column of Table 3.

[2] = test system: female biting midges (Culicoides impunctatus); experiment: Biting midges feeding test (Plexiglas module, treated membrane); details: control = 1.00, lower = more repellent
Description: The following tests are employed to illustrate the efficacy of the compounds of this disclosure to effectively act as biting midge deterrents, repellents or as spatial inhibitors for biting midges. […] Biting midges are tested in a two-piece Plexiglas module designed to assess their response to feeding deterrents. […] Water (40° C.) flows through the central cavity of the platform at a rate of 215 ml/min. The top piece of the module consists of six 4.5×4.0×5.0 cm chambers, the floors of which are fitted with a sliding door positioned over a circular opening 3.5 cm in diameter. Biting midges are introduced through an aperture 1 cm in diameter on the front wall of the chambers. For each test, five female biting midges (Culicoides impunctatus) are aspirated into each of five chambers of the top module piece and the apertures are plugged with corks wrapped in plastic film. […] To each well, 77.5 μl of green dye (McCormick Food, Hunt Valley, Md.) are added so that those biting midges imbibing the sugar solution can be identified when crushed at the end of the tests. Each membrane receives 50 μl of acetone or experimental compound solution, applied to 9.6 cm^2 circular area on 0.1 mm-thick membranes made of nylon mesh in a silicone matrix. The membranes are then placed over each well in contact with the sugar solution. The circular openings on the floor of each chamber of the top piece of the module are aligned with each membrane-covered well of the bottom piece. The sliding floors of the chambers are then opened allowing biting midges access to the membranes. The number of biting midges landing on the membranes, and those flying within the apparatus, are recorded each minute for five minutes. After five minutes, any biting midges remaining on the membranes are removed with a metal wire, and the door of the floor of each chamber is closed. The top piece of the module is then placed into a freezer for 20 minutes. In the test designed to assess feeding, biting midges are removed from the frozen module, crushed on white paper towels, and examined for the presence of green dye to indicate that feeding had occurred. The proportions of biting midges feeding per trial are analyzed using a standard generalized linear model with a logit link. Landing and flying scores are repeated measures; five readings are obtained for groups of five biting midges. Thus, to maintain independence among the data, the five readings are summed, and then the sums divided by 25 (the maximum score in each category) to create proportions of biting midges landing and flying. The proportions are then transferred using the standard variance stabilizing transformation for proportions (sin^−1 √y, where y is the proportion), and analyzed using ANOVA (Analysis of Variables). In Table 4, weight percent (wt %) refers to the weight of the deterring/repelling/inhibiting compound, or combination of compounds, in the composition used in the tests. […] The weight ratio of the compounds in the combination of compounds is given in parentheses in the “Compound(s)” column of Table 4.

[3] = 77.5 wt % compound(s) in composition
[4] = 80 wt % compound(s) in composition
[5] = 90 wt % compound(s) in composition
[6] = 87.5 wt % compound(s) in composition
[7] = 82.5 wt % compound(s) in composition

Q: What does the source list for `C=C(C)[C@H]1CC=C(C)C(=O)C1` [d-Carvone]?
A: Flying Relative To Control [1, 3]: 1.95; spatial inhibitor activity for mosquitoes (flying tests, FIGS. 2 and 4), in words [1]: particularly effective as spatial inhibitors for mosquitoes; Percent Caught Relative To Control (mosquitoes; [3]): 12%; Feeding Relative To Control [2, 3]: 0.65

Q: `C=C[C@@](C)(O)CCC=C(C)C` [d-Linalool, reference compound] was tested. Which “Flying Relative To Control” value [1, 4] did it give?
A: 1.25

Q: And the “Percent Caught Relative To Control” value (mosquitoes; [4])?
A: 6%

Q: What about the “Feeding Relative To Control” value [2, 4] of the same compound?
A: 0.31

Q: For `CC1=CCC(C(C)(C)O)CC1` (stereo not drawn) [α-terpineol], which “Flying Relative To Control” value [1, 5] is on record?
A: 1.15

Q: What about the “spatial inhibitor activity for mosquitoes (flying tests, FIGS. 2 and 4), in words” value [1] of the same compound?
A: particularly effective as spatial inhibitors for mosquitoes

Q: And the “Percent Caught Relative To Control” value (mosquitoes; [5])?
A: 18%

Q: What about the “Feeding Relative To Control” value [2, 5] of the same compound?
A: 0.80

Q: For (+) Limonene oxide, which “Flying Relative To Control” value [1, 6] is on record?
A: 0.90

Q: What about the “Percent Caught Relative To Control” value (mosquitoes; [6]) of the same compound?
A: 18%

Q: What about the “Feeding Relative To Control” value [2, 6] of the same compound?
A: 0.77

Q: Which “Flying Relative To Control” value [1, 7] does the source give for l-Carvone here?
A: 1.75

Q: And the “spatial inhibitor activity for mosquitoes (flying tests, FIGS. 2 and 4), in words” value [1]?
A: particularly effective as spatial inhibitors for mosquitoes

Q: What about the “Percent Caught Relative To Control” value (mosquitoes; [7]) of the same compound?
A: 10%

Q: And the “Feeding Relative To Control” value [2, 7]?
A: 0.62

— US20210029993A1, “SPATIAL INHIBITORS, DETERRENTS AND REPELLENTS FOR MOSQUITOES AND MIDGES” (BEDOUKIAN RESEARCH, INC., priority 2005, published 2021)
